Several values for one entry are separate records, joined by “and”; a condition that tells them apart may be missing. Equal values may be shown once. Inconclusive results and toxic doses are left out.
System: P388 leukemia ip, CD2F1 mice, survival T/C
Assay: NCI In Vivo Anticancer Drug Screen. Data for tumor model P388 Leukemia (intraperitoneal) in CD2F1 (CDF1) mice
Settings: endpoint: median survival time, higher = longer survival
Procedure, shortened: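 Mice carrying the transplanted tumor received test compound or vehicle. Survival was recorded in each group, and the value is the treated-group measurement divided by that of the vehicle-treated control group.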

[1] = dose: 100.0 mg/kg/injection, schedule: Q04DX003 (ip), vehicle: saline with Tween-80
[2] = dose: 50.0 mg/kg/injection, schedule: Q01DX009 (ip), vehicle: saline with Tween-80
[3] = dose: 100.0 mg/kg/injection, schedule: Q01DX009 (ip), vehicle: saline with Tween-80
[4] = dose: 200.0 mg/kg/injection, schedule: Q01DX009 (ip), vehicle: saline with Tween-80
[5] = dose: 50.0 mg/kg/injection, schedule: Q01DX005 (ip), vehicle: Klucel (hydroxypropylcellulose) (HPC)
[6] = dose: 100.0 mg/kg/injection, schedule: Q01DX005 (ip), vehicle: Klucel (hydroxypropylcellulose) (HPC)
[7] = dose: 200.0 mg/kg/injection, schedule: Q01DX005 (ip), vehicle: Klucel (hydroxypropylcellulose) (HPC)
[8] = dose: 60.0 mg/kg/injection, schedule: Q01DX005 (ip), vehicle: saline with Tween-80
[9] = dose: 120.0 mg/kg/injection, schedule: Q01DX005 (ip), vehicle: saline with Tween-80
[10] = dose: 240.0 mg/kg/injection, schedule: Q01DX005 (ip), vehicle: saline with Tween-80
[11] = dose: 25.0 mg/kg/injection, schedule: Q01DX009 (ip), vehicle: saline with Tween-80
[12] = dose: 120.0 mg/kg/injection, schedule: Q01DX005 (ip), vehicle: Klucel (hydroxypropylcellulose) (HPC)
[13] = dose: 50.0 mg/kg/injection, schedule: Q01DX005 (ip), vehicle: saline with Tween-80
[14] = dose: 60.0 mg/kg/injection, schedule: Q01DX005 (ip), vehicle: Klucel (hydroxypropylcellulose) (HPC)
[15] = dose: 240.0 mg/kg/injection, schedule: Q01DX005 (ip), vehicle: Klucel (hydroxypropylcellulose) (HPC)

C[C@]12C=CC(=O)C=C1CC[C@H]1[C@@H]3CCC(=O)O[C@@]3(C)CC(=O)[C@@]12F
T/C [1]: 91 % of control | T/C (dose: 200.0 mg/kg/injection, schedule: Q04DX003 (ip), vehicle: saline with Tween-80): 95 % of control | T/C (dose: 400.0 mg/kg/injection, schedule: Q04DX003 (ip), vehicle: saline with Tween-80): 100 % of control

O=C(CCl)Nc1c(Br)cc(F)cc1Br
T/C [2]: 88 % of control | T/C [3]: 99 % of control | T/C [4]: 104 % of control

CC(C)C(CC[C@@H](C)C1CC[C@@]2(C)C3=C(CC[C@]12C)[C@@]1(C)CC[C@H](O)C(C)(C)[C@@H]1CC3)S[As](C)C (stereo not given in full)
T/C [5]: 92 % of control | T/C [6]: 95 % of control | T/C [7]: 97 % of control

CC1CCn2c(nc3c2c(=O)n(C)c(=O)n3C)N1 (stereo not given)
T/C [8]: 102 % of control and 100 % of control | T/C [9]: 93 % of control and 94 % of control | T/C [10]: 93 % of control and 91 % of control

Cc1cc(C)c(C2C(=O)c3ccccc3C2=O)c(C)c1
T/C [11]: 111 % of control | T/C [2]: 109 % of control | T/C [3]: 116 % of control | T/C [4]: 110 % of control

Cc1[nH]c(=O)[nH]c(=O)c1C(=O)O
T/C [2]: 100 % of control | T/C [3]: 105 % of control | T/C [4]: 99 % of control

CC(=O)N/N=C/C(C)(C)C(C)(C)/C=N/NC(C)=O
T/C [12]: 153 % of control

O=C(O)c1nn(-c2ccc(Cl)cc2)c2c1C(=O)c1ccccc1C2=O
T/C (dose: 12.5 mg/kg/injection, schedule: Q01DX005 (ip), vehicle: Klucel (hydroxypropylcellulose) (HPC)): 98 % of control | T/C (dose: 25.0 mg/kg/injection, schedule: Q01DX005 (ip), vehicle: Klucel (hydroxypropylcellulose) (HPC)): 91 % of control | T/C [5]: 98 % of control and 89 % of control | T/C [6]: 92 % of control | T/C [7]: 103 % of control

CCC1S(=O)(=O)OCCOS1(=O)=O
T/C (dose: 7.5 mg/kg/injection, schedule: Q01DX005 (ip), vehicle: Klucel (hydroxypropylcellulose) (HPC)): 106 % of control | T/C (dose: 15.0 mg/kg/injection, schedule: Q01DX005 (ip), vehicle: Klucel (hydroxypropylcellulose) (HPC)): 106 % of control and 107 % of control and 116 % of control | T/C (dose: 30.0 mg/kg/injection, schedule: Q01DX005 (ip), vehicle: Klucel (hydroxypropylcellulose) (HPC)): 109 % of control and 112 % of control and 120 % of control

COC1C(/C=C/c2cnc(N)s2)OC2OC(C)(C)OC21 (stereo not given)
T/C (dose: 100.0 mg/kg/injection, schedule: Q04DX002 (ip), vehicle: saline with Tween-80): 102 % of control | T/C (dose: 200.0 mg/kg/injection, schedule: Q04DX002 (ip), vehicle: saline with Tween-80): 102 % of control | T/C (dose: 400.0 mg/kg/injection, schedule: Q04DX002 (ip), vehicle: saline with Tween-80): 115 % of control

O=C(O)c1cc2c(Cl)cccc2[nH]1
T/C [11]: 90 % of control | T/C [2]: 90 % of control | T/C [3]: 90 % of control

C1CCC2(CC1)N=C1CCCCC1S2 (stereo not given)
T/C (dose: 6.25 mg/kg/injection, schedule: Q01DX005 (ip), vehicle: saline + Tween-80 + alcohol): 106 % of control | T/C (dose: 12.5 mg/kg/injection, schedule: Q01DX005 (ip), vehicle: saline + Tween-80 + alcohol): 98 % of control | T/C (dose: 25.0 mg/kg/injection, schedule: Q01DX005 (ip), vehicle: saline + Tween-80 + alcohol): 104 % of control

CCOC(=O)CC1CCCN1Sc1ccc([N+](=O)[O-])cc1[N+](=O)[O-] (stereo not given)
T/C [13]: 100 % of control | T/C (dose: 100.0 mg/kg/injection, schedule: Q01DX005 (ip), vehicle: saline with Tween-80): 101 % of control | T/C (dose: 200.0 mg/kg/injection, schedule: Q01DX005 (ip), vehicle: saline with Tween-80): 100 % of control

CC(/C=N/N=C(N)N)=N/N=C(N)N
T/C (dose: 25.0 mg/kg/injection, schedule: Q01DX009 (ip), vehicle: saline): 120 % of control | T/C (dose: 25.0 mg/kg/injection, schedule: Q04DX003 (ip), vehicle: saline): 100 % of control | T/C (dose: 50.0 mg/kg/injection, schedule: Q01DX009 (ip), vehicle: saline): 150 % of control | T/C (dose: 50.0 mg/kg/injection, schedule: Q04DX003 (ip), vehicle: saline): 100 % of control | T/C (dose: 75.0 mg/kg/injection, schedule: Q01DX009 (ip), vehicle: saline): 170 % of control | T/C [3]: 86 % of control

CCOC(=O)[C@H]1C(CC)=NOC1C (stereo not given in full)
T/C [8]: 102 % of control | T/C [9]: 102 % of control | T/C [10]: 101 % of control

NC(=O)c1cc([N+](=O)[O-])cnc1Sc1ncccn1
T/C (dose: 12.5 mg/kg/injection, schedule: Q01DX009 (ip), vehicle: Klucel (hydroxypropylcellulose) (HPC)): 110 % of control | T/C (dose: 25.0 mg/kg/injection, schedule: Q01DX009 (ip), vehicle: Klucel (hydroxypropylcellulose) (HPC)): 118 % of control | T/C (dose: 50.0 mg/kg/injection, schedule: Q01DX009 (ip), vehicle: Klucel (hydroxypropylcellulose) (HPC)): 111 % of control and 114 % of control

CCOC(=O)CN1CN(CCCN(C)C)CC(C)(C)C1OCC (stereo not given)
T/C (dose: 15.0 mg/kg/injection, schedule: Q01DX009 (ip), vehicle: saline with Tween-80): 108 % of control | T/C (dose: 30.0 mg/kg/injection, schedule: Q01DX009 (ip), vehicle: saline with Tween-80): 98 % of control | T/C (dose: 60.0 mg/kg/injection, schedule: Q01DX009 (ip), vehicle: saline with Tween-80): 99 % of control

Cc1ccc(S(=O)(=O)N(C)C)cc1NC1=NCCO1
T/C (dose: 50.0 mg/kg/injection, schedule: Q01DX001 (ip), vehicle: saline with Tween-80): 95 % of control | T/C (dose: 100.0 mg/kg/injection, schedule: Q01DX001 (ip), vehicle: saline with Tween-80): 95 % of control | T/C (dose: 200.0 mg/kg/injection, schedule: Q01DX001 (ip), vehicle: saline with Tween-80): 100 % of control

CC1=C[C@H]2C[C@]3(C)CC[C@H]4[C@H](C)C(=O)O[C@@H]4[C@@]13OO2
T/C (dose: 0.75 mg/kg/injection, schedule: Q01DX005 (ip), vehicle: Klucel (hydroxypropylcellulose) (HPC)): 107 % of control | T/C (dose: 1.5 mg/kg/injection, schedule: Q01DX005 (ip), vehicle: Klucel (hydroxypropylcellulose) (HPC)): 103 % of control | T/C (dose: 3.0 mg/kg/injection, schedule: Q01DX005 (ip), vehicle: Klucel (hydroxypropylcellulose) (HPC)): 90 % of control | T/C (dose: 6.0 mg/kg/injection, schedule: Q01DX005 (ip), vehicle: Klucel (hydroxypropylcellulose) (HPC)): 111 % of control

O=C1c2nc[nH]c2C(=O)c2c1nc[nH]c2=O
T/C (dose: 3.75 mg/kg/injection, schedule: Q01DX005 (ip), vehicle: other): 101 % of control | T/C (dose: 7.5 mg/kg/injection, schedule: Q01DX005 (ip), vehicle: other): 100 % of control | T/C (dose: 15.0 mg/kg/injection, schedule: Q01DX005 (ip), vehicle: other): 106 % of control | T/C (dose: 30.0 mg/kg/injection, schedule: Q01DX005 (ip), vehicle: other): 102 % of control

CN1C(=O)n2c(nc3ccccc32)C(Cl)(Cl)C1=O
T/C [8]: 104 % of control | T/C [9]: 98 % of control

CC(=O)CS(F)(F)(F)(F)F
T/C [13]: 105 % of control

CC1(C)SC(C2NC(=O)C(c3ccccc3)NC2=O)NC1C(=O)O (stereo not given)
T/C [14]: 105 % of control | T/C [12]: 99 % of control | T/C [15]: 101 % of control

Nc1nc(-c2ccc(Cl)cc2)cc(-c2cc(-c3ccc(Cl)cc3)nc(N)n2)n1
T/C (dose: 60.0 mg/kg/injection, schedule: Q01DX005 (ip), vehicle: saline): 110 % of control | T/C (dose: 120.0 mg/kg/injection, schedule: Q01DX005 (ip), vehicle: saline): 102 % of control | T/C (dose: 240.0 mg/kg/injection, schedule: Q01DX005 (ip), vehicle: saline): 100 % of control

COc1cccc(C(c2cc3c(cc2O)OCO3)N2CCCC2)c1O (stereo not given)
T/C [14]: 109 % of control | T/C [12]: 109 % of control | T/C [15]: 115 % of control

Cc1ncc(CO)c(/C=N/NC(=O)c2ccncc2)c1O
T/C [14]: 102 % of control | T/C [12]: 102 % of control | T/C [15]: 101 % of control

CCOC(=O)CCCc1ccc(N=NN(C)C)cc1
T/C (dose: 66.0 mg/kg/injection, schedule: Q04DX003 (ip), vehicle: saline with Tween-80): 118 % of control | T/C [1]: 159 % of control

CCOC(=O)c1cnc2cc3c(cc2c1Nc1cccc(C(F)(F)F)c1)OCO3
T/C [14]: 96 % of control | T/C [12]: 102 % of control | T/C [15]: 101 % of control

CCCCC(O)(c1ccc2nc(NC(=O)OC)[nH]c2c1)c1cccs1 (stereo not given)
T/C (dose: 25.0 mg/kg/injection, schedule: Q01DX005 (ip), vehicle: other): 110 % of control | T/C (dose: 50.0 mg/kg/injection, schedule: Q01DX005 (ip), vehicle: other): 107 % of control | T/C (dose: 100.0 mg/kg/injection, schedule: Q01DX005 (ip), vehicle: other): 110 % of control | T/C (dose: 200.0 mg/kg/injection, schedule: Q01DX005 (ip), vehicle: other): 104 % of control

Reference: PubChem BioAssay AID330 (DTP/NCI, 2004)
